Results reported in ChEMBL document CHEMBL4354807, “Natural Product Albiziabioside A Conjugated with Pyruvate Dehydrogenase Kinase Inhibitor Dichloroacetate To Induce Apoptosis-Ferroptosis-M2-TAMs Polarization for Combined Cancer Therapy” (J Med Chem, 2019).
Activity calls are given as the source filed them. The calls are words filed in the database; no cut-off is given here.

How the values were obtained:
MCF7 [1] = assay: Induction of apoptosis in human MCF7 cells assessed as increase in caspase 9 expression at 2 uM after 48 hrs by Western blot analysis relative to control; format: functional
[2] = target: [Pyruvate dehydrogenase (acetyl-transferring)] kinase isozyme 1, mitochondrial (Homo sapiens) (UniProt Q15118); assay: Inhibition of PDK1 (unknown origin) in plasma using PDK tide as substrate measured after 90 mins in presence of ATP by ADP-Glo luminescent kinase assay; format: cell-free
[3] = Stability of compound in PBS at pH 7.4 and 37 degree C measured after 2 hrs by HPLC analysis; format: physicochemical; settings: buffer, pH 7.4, 2 h
4T1 [4] = assay: Anticancer activity against mouse 4T1 cells expressing PDK assessed as reduction in cell viability after 72 hrs by MTT assay; format: functional, cell-based; settings: 4T1, 72 h
4T1 [5] = assay: Reversal of immunosuppression against mouse 4T1 cells implanted in BALB/c mouse assessed as decrease in weight of distal tumor at 2 mg/kg administered intratumorally every 2 days for 2 weeks measured after 14 days; format: functional, organism-based
4T1 [6] = assay: Induction of M2-TAM polarization in mouse 4T1 cells assessed as decrease in Arg1 protein level at 2 uM after 48 hrs by Western blot analysis relative to control; format: functional
L02 [7] = assay: Cytotoxicity against human LO2 cells assessed as reduction in cell viability after 72 hrs by MTT assay; format: cell-based; settings: L02, 72 h
L02 [8] = assay: Cytotoxicity against human LO2 cells assessed as combination index after 72 hrs by MTT assay; format: cell-based; settings: l02, 72 h
4T1 [9] = assay: Synergistic anticancer activity against mouse 4T1 cells expressing assessed as combination index after 72 hrs by MTT assay; format: functional
[10] = Toxicity in BALB/c nude mouse xenografted with human MCF7 cells assessed as effect on blood urea nitrogen at 2 mg/kg, iv administered every 2 days for 2 weeks measured after 14 days; format: organism-based; settings: in vivo, 336 h
Mus musculus = assay: Modulation of tumor immunosuppressive activity in BALB/c mouse xenografted with mouse 4T1 cells assessed as increase in IL12 expression in tumor administered intratumorally every other day for 14 days measured at 2 days post-last dose by ELISA; format: functional, organism-based
MCF7 [11] = assay: Cytotoxicity against human MCF7 cells assessed as cell death at 2 uM pretreated with Z-VAD-fmk followed by compound addition by MTT assay; format: functional, cell-based
MCF7 [12] = assay: Induction of ferroptosis in human MCF7 cells assessed as reduction in cellular GSH level at 2 uM after 24 hrs by microplate reader assay; format: functional, cell-based
MCF7 [13] = assay: Induction of metabolic reversal from aerobic glycolysis to oxidative phosphorylation in human MCF7 cells assessed as effect on extracellular acidification rate at 2 uM pretreated for 4 hrs followed by glucose addition after 25 mins followed by subsequent addition of oligomycin A after 50 mins followed by 2-DG addition after 80 mins by seahorse XF24 extracellular flux analyzer assay; format: functional, cell-based
MCF7 [14] = assay: Induction of apoptosis in human MCF7 cells assessed as viable cells at 2 uM after 24 hrs by Annexin V-FITC/propidium iodide staining-based flow cytometric analysis (reference value: 93.39 %); format: functional; settings: MCF7, 24 h, read-out: Activity
4T1 [15] = assay: Induction of M2-TAM polarization in mouse 4T1 cells assessed as decrease in MRC1 mRNA expression at 2 uM after 48 hrs by Western blot analysis relative to control; format: functional
MCF7 [16] = assay: Induction of ROS generation in human MCF7 cells assessed as ROS level at 2 uM after 24 hrs by DCFDA-fluorescence based flow cytometry (reference value: 6.57 %); format: functional
4T1 [17] = assay: Reversal of immunosuppression against mouse 4T1 cells implanted in BALB/c mouse assessed as growth inhibition of distal tumor at 2 mg/kg administered intratumorally every 2 days for 2 weeks measured after 14 days; format: functional, organism-based
MCF7 [18] = assay: Downregulation of GPX4 expression in human MCF7 cells at 2 uM after 48 hrs by Western blot analysis; format: functional, cell-based
MCF7 [19] = assay: Effect on lipid peroxidation in human MCF7 cells assessed as increase in […] at 2 uM after 15 mins by BODIPY-C11 dye based fluorescence imaging analysis relative to control; format: functional
[20] = Stability of compound in plasma (unknown origin) 37 degree C measured after 2 hrs by HPLC analysis; format: ADME, cell-free
MCF7 [21] = assay: Induction of apoptosis in human MCF7 cells assessed as necrotic cells at 2 uM after 24 hrs by Annexin V-FITC/propidium iodide staining-based flow cytometric analysis (reference value: 0.10 %); format: functional
[22] = Toxicity in BALB/c nude mouse xenografted with human MCF7 cells assessed as effect on lung at 2 mg/kg, iv administered every 2 days for 2 weeks measured after 14 days by hematoxylin and eosin staining based histopathological analysis; format: organism-based; settings: in vivo, 336 h
A-375 = assay: Anticancer activity against human A375 cells expressing PDK assessed as reduction in cell viability after 72 hrs by MTT assay; format: functional, cell-based; settings: A-375, 72 h
[23] = Selectivity index, ratio IC50 for cytotoxicity against human HBMEC cells assessed as reduction in cell viability after 72 hrs by MTT assay to IC50 for anticancer activity against human HCT116 cells assessed as reduction in cell viability after 72 hrs by MTT assay
MCF7 [24] = assay: Induction of apoptosis in human MCF7 cells assessed as downregulation of Bcl2 expression at 2 uM after 48 hrs by Western blot analysis relative to control; format: functional
[25] = Drug metabolism assessed as carboxylesterase (unknown origin)-mediated compound cleavage at aniline-amide bond after 2 hrs by HPLC analysis; format: ADME; settings: human
[26] = target: [Pyruvate dehydrogenase (acetyl-transferring)] kinase isozyme 1, mitochondrial (Homo sapiens) (UniProt Q15118); assay: Inhibition of PDK1 (unknown origin) in PBS buffer using PDK tide as substrate at pH 7.4 measured after 90 mins in presence of ATP by ADP-Glo luminescent kinase assay
[27] = Toxicity in BALB/c nude mouse xenografted with human MCF7 cells assessed as effect on body weight at 2 mg/kg, iv administered every 2 days for 2 weeks measured after 14 days; format: organism-based; settings: in vivo, 336 h
[28] = Toxicity in BALB/c nude mouse xenografted with human MCF7 cells assessed as effect on kidney at 2 mg/kg, iv administered every 2 days for 2 weeks measured after 14 days by hematoxylin and eosin staining based histopathological analysis; format: organism-based; settings: in vivo, 336 h
4T1 [29] = assay: Inhibition of glycolysis in mouse 4T1 cells expressing PDK assessed as reduction in extracellular lactate level at 2 uM after 6 hrs by microplate reader assay; format: functional, cell-based
MCF7 [30] = assay: Induction of ferroptosis in human MCF7 cells assessed as cell death at 2 uM pretreated with exogenous iron Fe2+ followed by compound treatment by MTT assay; format: functional, cell-based
[31] = Selectivity index, ratio IC50 for cytotoxicity against human LO2 cells assessed as reduction in cell viability after 72 hrs by MTT assay to IC50 for anticancer activity against mouse 4T1 cells assessed as reduction in cell viability after 72 hrs by MTT assay
MCF7 [32] = assay: Antitumor activity against human MCF7 cells xenografted in BALB/c nude mouse assessed as suppression of tumor progression at 2 mg/kg, iv administered every two days for two weeks measured after 14 days relative to control; format: functional
4T1 [33] = assay: Reversal of immunosuppression against mouse 4T1 cells implanted in BALB/c mouse assessed as decrease in weight of primary tumor at 2 mg/kg administered intratumorally every 2 days for 2 weeks measured after 14 days; format: functional, organism-based

Q: Which results are given for CC1(C)CC[C@]2(C(=O)O)CC[C@]3(C)C(=CC[C@@H]4[C@@]5(C)CC[C@H](O[C@@H]6O[C@H](CO[C@@H]7OC[C@H](O)[C@H](O)[C@H]7O)[C@@H](O)[C@H](O)[C@H]6NC(=O)C(Cl)Cl)C(C)(C)[C@@H]5CC[C@]43C)[C@@H]2C1?
A: fold change (FC) (MCF7 [1]): 6; inhibition [2]: inactive; Stability [3]: Stable; IC50 (4T1 [4]): 1310 nM; Activity (4T1 [5]): Active; fold change (FC) (4T1 [6]): 2.1; IC50 (L02 [7]): 53.1 µM; CI (L02 [8]): 2.13; CI (4T1 [9]): 0.09; Activity [10]: Non-Toxic; Activity (Mus musculus): Active; Activity (MCF7 [11]): inactive; Activity (MCF7 [12]): Active; Activity (MCF7 [13]): Active; viability at 2 µM (MCF7 [14]): 47%; fold change (FC) (4T1 [15]): 3.4; Activity (MCF7 [16]): 44.19%; Activity (4T1 [17]): Active; Activity (MCF7 [18]): Active; fold change (FC) (MCF7 [19]): 2.5; Stability [20]: Stable; Activity (MCF7 [21]): 4.86%; Activity [22]: Non-Toxic; IC50 (A-375): 3.78 µM; Ratio IC50 [23]: 9.87; fold change (FC) (MCF7 [24]): 0.5; Drug metabolism [25]: Metabolite_Detected; inhibition [26]: inactive; Activity [27]: Non-Toxic; Activity [28]: Non-Toxic; inhibition (4T1 [29]): Active; Activity (MCF7 [30]): Active; Ratio IC50 [31]: 40.56; Activity (MCF7 [32]): 100%; Activity (4T1 [33]): Active
